Laboratory results taken from patent publication US20240325398A1, “COMBINATION THERAPIES” (Infinity Pharmaceuticals, Inc., priority 2014, published 2024).

Assays:
[1] = system: HH; assay: Combination study, ATPLite 72 h, dose matrix (Synergy Score, CI50); type: cell-based; details: combination with Compound 1
Description: The method is described as follows.
Additive effect is CI=1.0. […] Antagonistic effect is CI>1.0.
The Synergy Score is calculated as: […]

[2] = system: HBL-1; assay: as above; details: combination with Compound 1, 72 h
Description: (§1) Cells are thawed from a liquid nitrogen preserved state. Once cells have been expanded and divide at their expected doubling times, screening begins. Cells are seeded in growth media in either black 1536-well or 384-well tissue culture treated plates. Cells are then equilibrated in assay plates via centrifugation and placed in incubators attached to the Dosing Modules at 37° C. for 24 hours before treatment. […] These Tzero (To) plates are read using ultra-sensitive luminescence on Envision plate readers (Perkin Elmer). Treated assay plates are incubated with compound for 72 hours. After 72 hours, plates are developed for endpoint analysis using ATPLite. All data points are collected via automated processes, quality controlled and analyzed using Zalicus software.
(§2) where T is treated cell count and V is untreated (vehicle) cell count (at 72 hours). I ranges from 0% (when T=V) to 100% (when T=0). […] The measure of effect in the experiment can be the inhibition of cellular response relative to the untreated level (vehicle alone). […] The inhibition ranges from 0% at the untreated level to 100% when T=0. Inhibition levels are negative for agents that actually increase levels. Other effect measures, such as an activity ratio r=T/V may be more appropriate for some assays. When activity ratios (e.g, fold increase over stimulated control) are being used, the effect can be measured using an induction 1=ln(T/V). With this definition, all effect expressions are the same as for inhibition.
(§3) Growth Inhibition (GI) is used as a measure of cell viability. […] A GI reading of 100% represents complete growth inhibition—T72 compound-treated and T0 vehicle signals are matched. […] A GI reading of 200% represents complete death of all cells in the culture well. Compounds reaching an activity plateau of GI 200% are considered cytotoxic. GI is calculated by applying the following test and equation:
(§4) Combination analysis data were collected in a 6×6 dose matrix. Synergy is calculated by comparing a combination's response to those of its single compound, against the drug-with-itself dose-additive reference model. Deviations from dose additivity may be assessed visually on an isobologram or numerically with a Combination Index (CI). […] Additive effect is CI=1.0. […] Antagonistic effect is CI>1.0.
(§5) To measure combination effects in excess of Loewe additivity, a scalar measure to characterize the strength of synergistic interaction termed the Synergy Score is devised. The Synergy Score is calculated as:
(§6) The fractional inhibition for each component agent and combination point in the matrix is calculated relative to the median of all vehicle-treated control wells. The Synergy Score equation integrates the experimentally-observed activity volume at each point in the matrix in excess of a model surface numerically derived from the activity of the component agents using the Loewe model for additivity. Additional terms in the Synergy Score equation (above) are used to normalize for various dilution factors used for individual agents and to allow for comparison of synergy scores across an entire experiment. The inclusion of positive inhibition gating or an Idata multiplier removes noise near the zero effect level, and biases results for synergistic interactions at that occur at high activity levels.
(§7) Loewe Volume (Loewe Vol) is used to assess the overall magnitude of the combination interaction in excess of the Loewe additivity model. Loewe Volume is particularly useful when distinguishing synergistic increases in a phenotypic activity (positive Loewe Volume) versus synergistic antagonisms (negative Loewe Volume). […] This model defines additivity as a non-synergistic combination interaction where the combination dose matrix surface should be indistinguishable from either drug crossed with itself. The calculation for Loewe additivity is:

[3] = system: OCI-Ly3; assay: as above; details: combination with Compound 1; OCI-Ly3; 72 h
[4] = system: U-2932; assay: as above; details: combination with Compound 1, 72 h
[5] = system: TMD8; assay: as above; details: combination with Compound 1; TMD8; 72 h
[6] = system: OCI-Ly7; assay: as above; details: combination with Compound 1, 72 h
[7] = system: SU-DHL-4-epst; assay: as above; details: combination with Compound 1, 72 h
Description: as §1
The measure of effect in the experiment can be the inhibition of cellular response relative to the untreated level (vehicle alone). […] The inhibition ranges from 0% at the untreated level to 100% when T=0. Inhibition levels are negative for agents that actually increase levels.
as §3, §4, §5, §6, §7

[8] = system: DOHH-2; assay: as above; details: combination with Compound 1, 72 h
[9] = system: Farage; assay: as above; details: combination with Compound 1; Farage; 72 h
[10] = system: SU-DHL-10-epst; assay: as above; details: combination with Compound 1, 72 h
[11] = system: RL; assay: as above; details: combination with Compound 1, 72 h
Description: as §1, §2, §3, §4, §5, §6
(§8) Loewe Volume (Loewe Vol) is used to assess the overall magnitude of the combination interaction in excess of the Loewe additivity model. Loewe Volume is particularly useful when distinguishing synergistic increases in a phenotypic activity (positive Loewe Volume) versus synergistic antagonisms (negative Loewe Volume). […] This model defines additivity as a non-synergistic combination interaction where the combination dose matrix surface should be indistinguishable from either drug crossed with itself.

[12] = system: KARPAS-422; assay: as above; details: combination with Compound 1, 72 h
Description: as §1, §2, §3, §4, §5, §6, §8

[13] = system: WSU-NHL; assay: as above; details: combination with Compound 1, 72 h
[14] = system: KARPAS-299; assay: as above; details: combination with Compound 1
[15] = system: GRANTA-519; assay: as above; details: combination with Compound 1
[16] = system: Jeko-1; assay: as above; details: combination with Compound 1
[17] = system: Mino; assay: as above; details: combination with Compound 1
[18] = system: NCI-H929; assay: as above; details: combination with Compound 1
Description: as §1, §2, §3, §4, §5, §6, §8

[19] = as above; details: combination with Compound 1; OPM-2
[20] = system: OMP-2; assay: as above; details: combination with Compound 1; OPM-2
[21] = system: RPMI-8226; assay: as above; details: combination with Compound 1
Description: as §1, §2, §3, §4, §5, §6, §8

Nc1cccc2c1CN(C1CCC(=O)NC1=O)C2=O (stereo not drawn) [lenalidomide, 3-(4-Amino-1-oxo 1,3-dihydro-2H-isoindol-2-yl)piperidine-2,6-dione]
CI50 growth inhibition [1]: W (W=≥1)
CI50 inhibition [1]: T (T=0.5 to <0.7)
Synergy Score growth inhibition [1]: A2 (A2=1 to <3)
Synergy Score inhibition [1]: A1 (A1=0.0001 to <1)
CI50 growth inhibition [2]: W (W=≥1)
Synergy Score growth inhibition [2]: A1 (A1=0.0001 to <1)
Synergy Score inhibition [2]: A1 (A1=0.0001 to <1)
CI50 growth inhibition [3]: W (W=≥1)
Synergy Score growth inhibition [3]: A1 (A1=0.0001 to <1)
Synergy Score inhibition [3]: A1 (A1=0.0001 to <1)
CI50 growth inhibition [4]: U (U=0.7 to <1)
Synergy Score growth inhibition [4]: A1 (A1=0.0001 to <1)
Synergy Score inhibition [4]: A1 (A1=0.0001 to <1)
CI50 growth inhibition [5]: S (S=0.01 to <0.5)
CI50 inhibition [5]: S (S=0.01 to <0.5)
Synergy Score growth inhibition [5]: A3 (A3=>3)
Synergy Score inhibition [5]: A3 (A3=>3)
Synergy Score growth inhibition [6]: A1 (A1=0.0001 to <1)
Synergy Score inhibition [6]: A1 (A1=0.0001 to <1)
CI50 growth inhibition [7]: W (W=≥1)
CI50 inhibition [7]: T (T=0.5 to <0.7)
Synergy Score growth inhibition [7]: A2 (A2=1 to <3)
Synergy Score inhibition [7]: A1 (A1=0.0001 to <1)
CI50 growth inhibition [8]: S (S=0.01 to <0.5)
CI50 inhibition [8]: S (S=0.01 to <0.5)
Synergy Score growth inhibition [8]: A3 (A3=>3)
Synergy Score inhibition [8]: A2 (A2=1 to <3)
CI50 growth inhibition [9]: W (W=≥1)
CI50 inhibition [9]: W (W=≥1)
Synergy Score growth inhibition [9]: A2 (A2=1 to <3)
Synergy Score inhibition [9]: A1 (A1=0.0001 to <1)
CI50 growth inhibition [10]: T (T=0.5 to <0.7)
CI50 inhibition [10]: T (T=0.5 to <0.7)
Synergy Score growth inhibition [10]: A2 (A2=1 to <3)
Synergy Score inhibition [10]: A2 (A2=1 to <3)
Synergy Score growth inhibition [11]: A1 (A1=0.0001 to <1)
Synergy Score inhibition [11]: A1 (A1=0.0001 to <1)
CI50 growth inhibition [12]: S (S=0.01 to <0.5)
CI50 inhibition [12]: S (S=0.01 to <0.5)
Synergy Score growth inhibition [12]: A2 (A2=1 to <3)
Synergy Score inhibition [12]: A2 (A2=1 to <3)
CI50 growth inhibition [13]: T (T=0.5 to <0.7)
CI50 inhibition [13]: S (S=0.01 to <0.5)
Synergy Score growth inhibition [13]: A3 (A3=>3)
Synergy Score inhibition [13]: A2 (A2=1 to <3)
Synergy Score growth inhibition [14]: A1 (A1=0.0001 to <1)
Synergy Score inhibition [14]: A1 (A1=0.0001 to <1)
Synergy Score growth inhibition [15]: A1 (A1=0.0001 to <1)
Synergy Score inhibition [15]: A1 (A1=0.0001 to <1)
CI50 growth inhibition [16]: S (S=0.01 to <0.5)
CI50 inhibition [16]: T (T=0.5 to <0.7)
Synergy Score growth inhibition [16]: A2 (A2=1 to <3)
Synergy Score inhibition [16]: A2 (A2=1 to <3)
CI50 growth inhibition [17]: T (T=0.5 to <0.7)
CI50 inhibition [17]: W (W=≥1)
Synergy Score growth inhibition [17]: A2 (A2=1 to <3)
Synergy Score inhibition [17]: A1 (A1=0.0001 to <1)
CI50 growth inhibition [18]: T (T=0.5 to <0.7)
CI50 inhibition [18]: S (S=0.01 to <0.5)
Synergy Score growth inhibition [18]: A3 (A3=>3)
Synergy Score inhibition [18]: A3 (A3=>3)
CI50 growth inhibition [19]: S (S=0.01 to <0.5)
Synergy Score growth inhibition [20]: A2 (A2=1 to <3)
Synergy Score inhibition [20]: A1 (A1=0.0001 to <1)
Synergy Score growth inhibition [21]: A1 (A1=0.0001 to <1)
Synergy Score inhibition [21]: A1 (A1=0.0001 to <1)
